Laboratory results: paper PMC12670405, “Second-Generation AURKA-Targeting PROTACs: Structural Optimization toward in Vivo Degradation in Neuroblastoma” (Journal of Medicinal Chemistry, 2025)

Experiments:
Assay in all cases: KINOMEscan scanMAX
Format in all cases: binding
Conditions in all cases: read-out: Percent Control
AURKB = target: T1, AURKB (Homo sapiens, UniProt Q96GD4)
T1 construct: purchased Eurofins Discovery
Protocol: (§1) The kinome-wide binding assay was performed by Eurofins Discovery using the scanMAX screening platform. More information can be found on the Eurofins Discovery Web site.

BLK = target: T2, BLK (Homo sapiens, UniProt P51451)
T2 construct: purchased Eurofins Discovery (DiscoverX KINOMEscan scanMAX)
Protocol: as §1

BUB1 = target: T3, BUB1 (Homo sapiens, UniProt O43683)
T3 construct: purchased Eurofins Discovery (DiscoverX KINOMEscan scanMAX)
Protocol: as §1

CSF1R = target: T4, CSF1R (Homo sapiens, UniProt P07333)
T4 construct: purchased Eurofins Discovery (DiscoverX KINOMEscan scanMAX)
Protocol: as §1

DAPK1 = target: T5, DAPK1 (Homo sapiens, UniProt P53355)
T5 construct: purchased Eurofins Discovery (DiscoverX KINOMEscan scanMAX)
Protocol: as §1

DCAMKL2 = target: T6, DCAMKL2 (Homo sapiens, UniProt Q8N568)
T6 construct: purchased Eurofins Discovery (DiscoverX KINOMEscan scanMAX)
Protocol: as §1

EGFR(T790M) = target: T7, EGFR(T790M) (Homo sapiens, UniProt P00533, T790M)
T7 construct: purchased Eurofins Discovery (DiscoverX KINOMEscan scanMAX)
Protocol: as §1

EPHB4 = target: T8, EPHB4 (Homo sapiens, UniProt P54760)
T8 construct: purchased Eurofins Discovery (DiscoverX KINOMEscan scanMAX)
Protocol: as §1

FLT3(D835Y) = target: T9, FLT3(D835Y) (Homo sapiens, UniProt P36888, D835Y)
T9 construct: purchased Eurofins Discovery (DiscoverX KINOMEscan scanMAX)
Protocol: as §1

KIT(A829P) = target: T10, KIT(A829P) (Homo sapiens, UniProt P10721, A829P)
T10 construct: purchased Eurofins Discovery (DiscoverX KINOMEscan scanMAX)
Protocol: as §1

KIT(D816H) = target: T11, KIT(D816H) (Homo sapiens, UniProt P10721, D816H)
T11 construct: purchased Eurofins Discovery (DiscoverX KINOMEscan scanMAX)
Protocol: as §1

LATS1 = target: T12, LATS1 (Homo sapiens, UniProt O95835)
T12 construct: purchased Eurofins Discovery (DiscoverX KINOMEscan scanMAX)
Protocol: as §1

LIMK1 = target: T13, LIMK1 (Homo sapiens, UniProt P53667)
T13 construct: purchased Eurofins Discovery (DiscoverX KINOMEscan scanMAX)
Protocol: as §1

LRRK2 = target: T14, LRRK2 (Homo sapiens, UniProt Q5S007)
T14 construct: purchased Eurofins Discovery (DiscoverX KINOMEscan scanMAX)
Protocol: as §1

MLK3 = target: T15, MLK3 (Homo sapiens, UniProt Q16584)
T15 construct: purchased Eurofins Discovery (DiscoverX KINOMEscan scanMAX)
Protocol: as §1

NIM1 = target: T16, NIM1 (Homo sapiens, UniProt Q8IY84)
T16 construct: purchased Eurofins Discovery (DiscoverX KINOMEscan scanMAX)
Protocol: as §1

PDGFRB = target: T17, PDGFRB (Homo sapiens, UniProt P09619)
T17 construct: purchased Eurofins Discovery (DiscoverX KINOMEscan scanMAX)
Protocol: as §1

PDPK1 = target: T18, PDPK1 (Homo sapiens, UniProt O15530)
T18 construct: purchased Eurofins Discovery (DiscoverX KINOMEscan scanMAX)
Protocol: as §1

PFTAIRE2 = target: T19, PFTAIRE2 (Homo sapiens, UniProt Q96Q40)
T19 construct: purchased Eurofins Discovery (DiscoverX KINOMEscan scanMAX)
Protocol: as §1

PHKG1 = target: T20, PHKG1 (Homo sapiens, UniProt Q16816)
T20 construct: purchased Eurofins Discovery (DiscoverX KINOMEscan scanMAX)
Protocol: as §1

PIK3CA(E545A) = target: T21, PIK3CA(E545A) (Homo sapiens, UniProt P42336, E545A)
T21 construct: purchased Eurofins Discovery (DiscoverX KINOMEscan scanMAX)
Protocol: as §1

[1] = target: T22, RPS6KA4(Kin.Dom.2-C-terminal) (Homo sapiens, UniProt O75676)
T22 construct: RPS6KA4(Kin.Dom.2-C-terminal); purchased Eurofins Discovery (DiscoverX KINOMEscan scanMAX)
Protocol: as §1

[2] = target: T23, RSK2(Kin.Dom.2-C-terminal) (Homo sapiens, UniProt P51812)
T23 construct: RSK2(Kin.Dom.2-C-terminal); purchased Eurofins Discovery (DiscoverX KINOMEscan scanMAX)
Protocol: as §1

SBK1 = target: T24, SBK1 (Homo sapiens, UniProt Q52WX2)
T24 construct: purchased Eurofins Discovery (DiscoverX KINOMEscan scanMAX)
Protocol: as §1

SGK3 = target: T25, SGK3 (Homo sapiens, UniProt Q96BR1)
T25 construct: purchased Eurofins Discovery (DiscoverX KINOMEscan scanMAX)
Protocol: as §1

TRKC = target: T26, TRKC (Homo sapiens, UniProt Q16288)
T26 construct: purchased Eurofins Discovery (DiscoverX KINOMEscan scanMAX)
Protocol: as §1

VRK2 = target: T27, VRK2 (Homo sapiens, UniProt Q86Y07)
T27 construct: purchased Eurofins Discovery (DiscoverX KINOMEscan scanMAX)
Protocol: as §1

AURKA = target: T28, AURKA (Homo sapiens, UniProt O14965); design: purchased Eurofins Discovery
T28 sequence (O14965 1-403): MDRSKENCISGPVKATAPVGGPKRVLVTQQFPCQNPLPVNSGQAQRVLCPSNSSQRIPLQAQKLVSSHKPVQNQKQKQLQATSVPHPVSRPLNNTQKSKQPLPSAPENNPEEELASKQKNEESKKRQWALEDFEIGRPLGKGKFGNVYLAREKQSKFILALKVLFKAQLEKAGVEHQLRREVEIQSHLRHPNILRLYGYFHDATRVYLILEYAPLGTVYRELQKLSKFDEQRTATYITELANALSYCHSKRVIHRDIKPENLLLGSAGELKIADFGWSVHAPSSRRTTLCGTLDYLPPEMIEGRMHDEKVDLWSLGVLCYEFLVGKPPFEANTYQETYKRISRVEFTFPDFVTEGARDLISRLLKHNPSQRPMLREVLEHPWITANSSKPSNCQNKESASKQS
Protocol: as §1

T6 sequence (Q8N568 whole entry): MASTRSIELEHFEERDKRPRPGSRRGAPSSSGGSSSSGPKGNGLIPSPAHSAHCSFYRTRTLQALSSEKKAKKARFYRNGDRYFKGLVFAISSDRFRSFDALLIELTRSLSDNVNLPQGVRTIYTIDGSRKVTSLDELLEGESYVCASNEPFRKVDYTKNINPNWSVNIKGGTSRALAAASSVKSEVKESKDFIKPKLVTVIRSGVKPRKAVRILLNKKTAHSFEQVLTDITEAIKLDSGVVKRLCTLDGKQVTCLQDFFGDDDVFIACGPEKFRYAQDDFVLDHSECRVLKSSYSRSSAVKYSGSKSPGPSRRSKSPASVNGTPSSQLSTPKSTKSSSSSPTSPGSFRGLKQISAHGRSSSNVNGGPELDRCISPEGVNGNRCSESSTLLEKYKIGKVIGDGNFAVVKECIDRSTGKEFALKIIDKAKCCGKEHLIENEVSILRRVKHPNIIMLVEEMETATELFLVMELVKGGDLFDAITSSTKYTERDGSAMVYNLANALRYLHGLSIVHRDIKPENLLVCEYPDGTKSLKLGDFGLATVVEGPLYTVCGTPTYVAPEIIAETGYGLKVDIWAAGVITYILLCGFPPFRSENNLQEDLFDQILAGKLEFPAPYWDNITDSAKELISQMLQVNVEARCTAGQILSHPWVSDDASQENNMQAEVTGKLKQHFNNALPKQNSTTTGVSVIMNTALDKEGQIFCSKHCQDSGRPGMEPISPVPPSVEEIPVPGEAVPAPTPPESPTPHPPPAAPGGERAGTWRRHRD
T1 sequence (Q96GD4 whole entry): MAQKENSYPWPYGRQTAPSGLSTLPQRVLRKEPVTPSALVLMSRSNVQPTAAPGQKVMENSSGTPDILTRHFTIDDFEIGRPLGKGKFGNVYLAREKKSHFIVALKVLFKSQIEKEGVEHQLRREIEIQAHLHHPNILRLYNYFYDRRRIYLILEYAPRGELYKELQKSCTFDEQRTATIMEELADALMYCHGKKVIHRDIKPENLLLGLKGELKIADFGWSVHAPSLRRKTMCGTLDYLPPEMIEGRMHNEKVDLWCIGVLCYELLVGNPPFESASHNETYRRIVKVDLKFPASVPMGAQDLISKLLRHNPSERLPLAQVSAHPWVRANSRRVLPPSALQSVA
T17 sequence (P09619 33-1106): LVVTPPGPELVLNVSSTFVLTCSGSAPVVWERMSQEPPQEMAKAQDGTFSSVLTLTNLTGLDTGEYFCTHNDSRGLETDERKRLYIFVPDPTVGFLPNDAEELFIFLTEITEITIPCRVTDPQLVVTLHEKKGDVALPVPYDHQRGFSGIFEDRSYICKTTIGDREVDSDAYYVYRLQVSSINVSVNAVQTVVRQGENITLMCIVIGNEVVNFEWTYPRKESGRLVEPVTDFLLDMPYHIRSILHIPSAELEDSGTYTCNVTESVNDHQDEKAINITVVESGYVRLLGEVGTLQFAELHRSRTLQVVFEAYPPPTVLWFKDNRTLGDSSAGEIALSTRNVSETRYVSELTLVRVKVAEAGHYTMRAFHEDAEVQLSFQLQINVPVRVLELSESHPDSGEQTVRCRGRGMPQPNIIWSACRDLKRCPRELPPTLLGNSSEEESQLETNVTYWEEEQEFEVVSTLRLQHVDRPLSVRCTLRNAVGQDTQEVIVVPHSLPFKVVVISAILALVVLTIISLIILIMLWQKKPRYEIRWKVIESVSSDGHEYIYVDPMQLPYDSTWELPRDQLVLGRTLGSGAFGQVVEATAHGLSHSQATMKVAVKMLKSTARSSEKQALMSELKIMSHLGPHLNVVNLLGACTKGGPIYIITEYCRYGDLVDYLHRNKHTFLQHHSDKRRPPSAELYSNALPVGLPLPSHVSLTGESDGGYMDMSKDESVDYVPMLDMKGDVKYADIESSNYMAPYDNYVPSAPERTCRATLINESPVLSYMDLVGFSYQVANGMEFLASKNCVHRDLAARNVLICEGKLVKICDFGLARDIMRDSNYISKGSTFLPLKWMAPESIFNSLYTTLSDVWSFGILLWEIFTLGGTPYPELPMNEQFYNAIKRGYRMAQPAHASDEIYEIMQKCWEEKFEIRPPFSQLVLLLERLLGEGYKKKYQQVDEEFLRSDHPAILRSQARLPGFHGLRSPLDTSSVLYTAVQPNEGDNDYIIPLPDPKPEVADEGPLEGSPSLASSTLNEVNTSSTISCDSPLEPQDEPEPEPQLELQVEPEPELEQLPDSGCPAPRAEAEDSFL
T4 sequence (P07333 20-972): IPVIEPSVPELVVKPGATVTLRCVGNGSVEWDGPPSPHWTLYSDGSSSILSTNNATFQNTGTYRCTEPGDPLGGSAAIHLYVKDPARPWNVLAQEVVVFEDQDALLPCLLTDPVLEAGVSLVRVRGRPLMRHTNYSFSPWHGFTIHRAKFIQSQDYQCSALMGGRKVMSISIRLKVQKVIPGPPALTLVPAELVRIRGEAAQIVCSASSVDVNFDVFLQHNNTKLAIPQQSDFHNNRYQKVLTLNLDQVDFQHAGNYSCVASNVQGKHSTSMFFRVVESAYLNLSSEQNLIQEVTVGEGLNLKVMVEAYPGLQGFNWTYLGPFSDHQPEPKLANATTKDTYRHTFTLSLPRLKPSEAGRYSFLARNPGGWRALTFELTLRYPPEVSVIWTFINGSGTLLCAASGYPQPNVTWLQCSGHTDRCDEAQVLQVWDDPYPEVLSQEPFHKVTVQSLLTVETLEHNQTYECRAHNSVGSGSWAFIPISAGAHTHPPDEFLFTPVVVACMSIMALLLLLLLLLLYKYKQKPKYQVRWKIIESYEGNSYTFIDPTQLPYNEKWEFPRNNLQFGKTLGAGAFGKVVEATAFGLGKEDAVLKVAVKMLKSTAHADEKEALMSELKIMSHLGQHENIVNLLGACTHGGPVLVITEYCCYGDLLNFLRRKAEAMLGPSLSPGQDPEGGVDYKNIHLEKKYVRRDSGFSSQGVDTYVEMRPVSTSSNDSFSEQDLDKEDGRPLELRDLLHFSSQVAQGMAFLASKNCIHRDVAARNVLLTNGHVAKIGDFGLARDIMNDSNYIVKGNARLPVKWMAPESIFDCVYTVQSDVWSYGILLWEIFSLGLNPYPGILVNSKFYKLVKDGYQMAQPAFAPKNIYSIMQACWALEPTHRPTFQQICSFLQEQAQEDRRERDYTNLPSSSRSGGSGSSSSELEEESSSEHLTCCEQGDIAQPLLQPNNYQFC
T21 sequence (P42336 whole entry E545A): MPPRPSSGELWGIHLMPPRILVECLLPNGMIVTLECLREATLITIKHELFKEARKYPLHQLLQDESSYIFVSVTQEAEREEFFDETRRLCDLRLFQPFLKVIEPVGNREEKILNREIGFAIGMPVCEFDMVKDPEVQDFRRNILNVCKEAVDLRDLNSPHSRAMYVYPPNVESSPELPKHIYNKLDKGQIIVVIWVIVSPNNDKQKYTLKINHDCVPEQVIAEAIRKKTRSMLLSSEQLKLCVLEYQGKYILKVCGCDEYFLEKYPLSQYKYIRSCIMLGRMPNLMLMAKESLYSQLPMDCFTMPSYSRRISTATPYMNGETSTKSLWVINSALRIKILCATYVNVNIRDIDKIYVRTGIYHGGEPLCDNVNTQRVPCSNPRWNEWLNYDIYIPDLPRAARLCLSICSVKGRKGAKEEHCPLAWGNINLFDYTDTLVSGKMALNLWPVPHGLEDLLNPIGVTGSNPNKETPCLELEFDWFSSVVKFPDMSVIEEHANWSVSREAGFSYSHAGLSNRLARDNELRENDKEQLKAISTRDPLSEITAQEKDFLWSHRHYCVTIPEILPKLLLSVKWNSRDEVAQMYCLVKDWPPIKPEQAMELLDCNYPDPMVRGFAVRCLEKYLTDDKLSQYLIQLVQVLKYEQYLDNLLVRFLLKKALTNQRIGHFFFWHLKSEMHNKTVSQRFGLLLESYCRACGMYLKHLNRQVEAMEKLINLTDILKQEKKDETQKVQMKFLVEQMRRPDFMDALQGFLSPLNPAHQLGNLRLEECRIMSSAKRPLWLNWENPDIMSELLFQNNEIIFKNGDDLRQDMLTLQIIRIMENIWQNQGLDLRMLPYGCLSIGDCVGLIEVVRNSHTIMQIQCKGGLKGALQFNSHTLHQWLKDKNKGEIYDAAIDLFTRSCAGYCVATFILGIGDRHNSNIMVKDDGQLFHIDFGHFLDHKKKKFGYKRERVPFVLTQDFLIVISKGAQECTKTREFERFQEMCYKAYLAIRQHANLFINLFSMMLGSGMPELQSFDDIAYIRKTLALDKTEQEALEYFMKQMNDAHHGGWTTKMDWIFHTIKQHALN
T2 sequence (P51451 whole entry): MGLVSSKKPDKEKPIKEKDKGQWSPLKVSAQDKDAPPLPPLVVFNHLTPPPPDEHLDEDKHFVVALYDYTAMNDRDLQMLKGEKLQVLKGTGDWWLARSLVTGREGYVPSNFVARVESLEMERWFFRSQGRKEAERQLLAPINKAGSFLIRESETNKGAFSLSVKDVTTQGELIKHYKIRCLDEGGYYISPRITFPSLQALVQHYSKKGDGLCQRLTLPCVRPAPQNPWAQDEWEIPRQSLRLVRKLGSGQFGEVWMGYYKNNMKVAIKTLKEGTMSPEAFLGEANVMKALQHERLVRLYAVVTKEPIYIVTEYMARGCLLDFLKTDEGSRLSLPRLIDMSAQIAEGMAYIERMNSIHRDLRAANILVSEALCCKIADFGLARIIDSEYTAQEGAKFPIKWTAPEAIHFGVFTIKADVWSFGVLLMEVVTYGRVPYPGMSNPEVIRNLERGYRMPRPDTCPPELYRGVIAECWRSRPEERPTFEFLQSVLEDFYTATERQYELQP
T23 sequence (P51812 398-740 limits assumed): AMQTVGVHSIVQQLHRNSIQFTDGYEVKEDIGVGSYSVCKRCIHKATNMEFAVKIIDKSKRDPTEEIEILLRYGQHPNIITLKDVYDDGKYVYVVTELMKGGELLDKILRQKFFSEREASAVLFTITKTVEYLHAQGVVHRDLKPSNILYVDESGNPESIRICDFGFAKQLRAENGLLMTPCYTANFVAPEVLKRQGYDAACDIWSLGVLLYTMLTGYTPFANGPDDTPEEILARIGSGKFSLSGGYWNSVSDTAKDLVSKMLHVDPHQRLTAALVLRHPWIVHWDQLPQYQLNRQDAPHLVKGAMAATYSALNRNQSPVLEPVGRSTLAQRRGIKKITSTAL

Compound `Cc1cc(Nc2ccc(F)c(CC3(C(=O)N4CCC(F)(CN5CCN(c6ccc(N7CCC(=O)NC7=O)cn6)CC5)CC4)CCN(Cc4cccc(Cl)c4F)CC3)n2)n[nH]1` [SK5527] has a remaining binding at 0.1 µM (AURKB; 100 nM) of 100%, a remaining binding at 1 µM (AURKB; 1000 nM) of 53% and a remaining binding at 0.1 µM (BLK; 100 nM) of 97%. It also gave a remaining binding at 1 µM (BLK; 1000 nM) of 45%, a remaining binding at 0.1 µM (BUB1; 100 nM) of 100% and a remaining binding at 1 µM (BUB1; 1000 nM) of 100%. The remaining binding at 0.1 µM (CSF1R; 100 nM) was 97%, the remaining binding at 1 µM (CSF1R; 1000 nM) was 90% and the remaining binding at 0.1 µM (DAPK1; 100 nM) was 85%. For the same compound, the remaining binding at 1 µM (DAPK1; 1000 nM) was 81%, the remaining binding at 0.1 µM (DCAMKL2; 100 nM) was 93% and the remaining binding at 1 µM (DCAMKL2; 1000 nM) was 91%. For the same compound, the remaining binding at 0.1 µM (EGFR(T790M); 100 nM) was 92%, the remaining binding at 1 µM (EGFR(T790M); 1000 nM) was 91% and the remaining binding at 0.1 µM (EPHB4; 100 nM) was 100%. For the same compound, the remaining binding at 1 µM (EPHB4; 1000 nM) was 100%, the remaining binding at 0.1 µM (FLT3(D835Y); 100 nM) was 69% and the remaining binding at 1 µM (FLT3(D835Y); 1000 nM) was 72%. For the same compound, the remaining binding at 0.1 µM (KIT(A829P); 100 nM) was 100%, the remaining binding at 1 µM (KIT(A829P); 1000 nM) was 95% and the remaining binding at 0.1 µM (KIT(D816H); 100 nM) was 100%. For the same compound, the remaining binding at 1 µM (KIT(D816H); 1000 nM) was 100%, the remaining binding at 0.1 µM (LATS1; 100 nM) was 100% and the remaining binding at 1 µM (LATS1; 1000 nM) was 100%. It also gave a remaining binding at 0.1 µM (LIMK1; 100 nM) of 88%, a remaining binding at 1 µM (LIMK1; 1000 nM) of 96% and a remaining binding at 0.1 µM (LRRK2; 100 nM) of 100%. It also gave a remaining binding at 1 µM (LRRK2; 1000 nM) of 94%, a remaining binding at 0.1 µM (MLK3; 100 nM) of 85% and a remaining binding at 1 µM (MLK3; 1000 nM) of 100%. For the same compound, the remaining binding at 0.1 µM (NIM1; 100 nM) was 58%, the remaining binding at 1 µM (NIM1; 1000 nM) was 76% and the remaining binding at 0.1 µM (PDGFRB; 100 nM) was 100%. The remaining binding at 1 µM (PDGFRB; 1000 nM) was 63%, the remaining binding at 0.1 µM (PDPK1; 100 nM) was 89% and the remaining binding at 1 µM (PDPK1; 1000 nM) was 100%. It also gave a remaining binding at 0.1 µM (PFTAIRE2; 100 nM) of 75%, a remaining binding at 1 µM (PFTAIRE2; 1000 nM) of 80% and a remaining binding at 0.1 µM (PHKG1; 100 nM) of 99%. For the same compound, the remaining binding at 1 µM (PHKG1; 1000 nM) was 100%, the remaining binding at 0.1 µM (PIK3CA(E545A); 100 nM) was 72% and the remaining binding at 1 µM (PIK3CA(E545A); 1000 nM) was 100%. For the same compound, the remaining binding at 0.1 µM ([1]; 100 nM) was 85%, the remaining binding at 1 µM ([1]; 1000 nM) was 77% and the remaining binding at 0.1 µM ([2]; 100 nM) was 82%. The remaining binding at 1 µM ([2]; 1000 nM) was 89%, the remaining binding at 0.1 µM (SBK1; 100 nM) was 86% and the remaining binding at 1 µM (SBK1; 1000 nM) was 64%. For the same compound, the remaining binding at 0.1 µM (SGK3; 100 nM) was 100%, the remaining binding at 1 µM (SGK3; 1000 nM) was 88% and the remaining binding at 0.1 µM (TRKC; 100 nM) was 97%. The remaining binding at 1 µM (TRKC; 1000 nM) was 76%, the remaining binding at 0.1 µM (VRK2; 100 nM) was 82% and the remaining binding at 1 µM (VRK2; 1000 nM) was 77%. For the same compound, the remaining binding at 0.1 µM (AURKA; 100 nM) was 0.8% and the remaining binding at 1 µM (AURKA; 1000 nM) was 0%.
